In patent US20240336613A1, “HETEROARYL COMPOUNDS FOR TREATING HUNTINGTON'S DISEASE” (PTC THERAPEUTICS, INC., priority 2021, published 2024):
Where two headings read alike, the source gives them in different places.

System: Huntingtin protein (HTT)
Test: Endogenous Huntingtin Protein Assay (MSD electrochemiluminescence)
Type: cell-based
Conditions: for IC50: read-out: IC50
Method: Compounds of Formula (I) were tested using the Meso Scale Discovery (MSD) Assay provided in International Application No. PCT/US2016/066042, filed on Dec. 11, 2016 and claiming priority to United States Provisional Application U.S. 62/265,652 filed on Dec. 10, 2015, the entire contents of which are incorporated herein by reference.
The Endogenous Huntingtin Protein assay used in Example 1 was developed using the ELISA-based MSD electrochemiluminescence assay platform.
Meso Scale Discovery (MSD) 96-well or 384-well plates were coated overnight at 4° C. with MW1 (expanded polyglutamine) or MAB2166 monoclonal antibody (for capture) at a concentration of 1 μg/mL in PBS (30 μL per well). Plates were then washed three times with 300 μL wash buffer (0.05% Tween-20 in PBS) and blocked (100 μL blocking buffer; 5% BSA in PBS) for 4-5 hours at room temperature with rotational shaking and then washed three times with wash buffer.
Samples (25 μL) were transferred to the antibody-coated MSD plate and incubated overnight at 4° C. After removal of the lysates, the plate was washed three times with wash buffer, and 25 μL of #5656S (Cell signaling; rabbit monoclonal) secondary antibody (diluted to 0.25 μg/mL in 0.05% Tween-20 in blocking buffer) was added to each well and incubated with shaking for 1 Hour at room temperature. Following incubation with the secondary antibody, the wells were rinsed with wash buffer after which 25 μL of goat anti-rabbit SULFO TAG secondary detection antibody (required aspect of the MSD system) (diluted to 0.25 μg/mL in 0.05% Tween-20 in blocking buffer) was added to each well and incubated with shaking for 1 hour at room temperature. After rinsing three times with wash buffer, 150 μL of read buffer T with surfactant (MSD) were added to each empty well, and the plate was imaged on a SI 6000 imager (MSD) according to manufacturers' instructions provided for 96- or 384-well plates.

| IC50 (Table 1, Endogenous Huntingtin Protein Assay) | IC50 (Table 2, comparison compounds tested according to the assay of Example 1) | SMILES | potency comparison, 1H-pyrazole moiety replaced with 1H-1,2,3-triazole moiety (Cpd 72 compared with Cpd 7 in WO2020/005873) |
| --- | --- | --- | --- |
| < 0.1 µM | – | CC1(C)C[C@H](n2ccc3cc(-c4c(O)cc(-n5ccnn5)cc4F)nnc32)[C@H](F)C(C)(C)N1 [Cpd 27, 3-fluoro-2-{7-[(3S,4S)-3-fluoro-2,2,6,6-tetramethylpiperidin-4-yl]-7H-pyrrolo[2,3-c]pyridazin-3-yl}-5-(1H-1,2,3-triazol-1-yl)phenol] | – |
| – | 0.179 µM | CC1(C)CC(n2nnc3cc(-c4ccc(-n5ccnn5)cc4O)nnc32)CC(C)(C)N1 [Cpd 72 in WO2020/005873, reference compound] | significant loss in potency |
